Measured values reported in patent US6743895B1, “Bone stimulating factor” (Osteopharm Inc., priority 1995, dated 2004).
No end group written: not given here.

Key:
rats = assay: Bone mineral apposition rate in intact rats after subcutaneous injection of polypeptide, tetracycline labelling; format: in vivo, Sprague-Dawley rats; details: for Increase of bone apposition rate with respect to the control: non-N-terminus variants (Table Nineteen, FIG. 12); for Bone Apposition Rate, Mean: rats injected with non-N-terminus variants, SEQ ID NO:1 for comparison, lower metaphysis of right femur (Table Nineteen); for Bone stimulatory activity of substituted 10-amino acid polypeptides: rats about 300 grams, 100 nmoles s.c. per animal, N-terminus acetylated, C-terminus amidated, compared with family retaining full charge pattern
Description: Experiments were carried out on three groups of six rats weighing between 295 and 320 g. A 1 mg per ml solution of the modified peptide (SEQ ID NO:3) was prepared in 0.1% acetic acid. A 1 mg per ml solution of the normal peptide (SEQ ID NO:1) was prepared in 0.1% acetic acid. Each rat of a first of the groups had subcutaneously injected into its right thigh 0.1 ml of the modified peptide solution. Similarly, each rat of the second group was injected with 0.1 ml of the normal peptide solution. Each rat of the third group, the control group, was injected with 0.1 ml of 0.1% acetic acid solution. Immediately following these injections, each rat was injected intramuscularly with 24 mg per Kg body weight of tetracycline hydrochloride dissolved in 0.5 ml of water. A second dose of tetracycline hydrochloride was administered 48 hours later. The animals were sacrificed 24 hours after the second dose by CO2 narcosis. The lower metaphysis of the right femur was dissected out and fixed in a 10% aqueous solution of formaldehyde buffered at pH 7.2 by acetate buffer. Bone sections were prepared for measurement as described above.
Sprague-Dawley rats were used as test animals to determine bone mineral apposition rate, as described above. Male rats having weights between 280 and 380 g were subject to subcutaneous injection after one week of acclimatization. Each animal was injected with 200 μl of a 0.1% acetic acid test solution, solutions having been prepared at concentrations to obtain a dosage of about 25 nmol of polypeptide per animal. Each test dose was immediately followed by intramuscular injection of 24 mg per Kg of body weight of tetracycline hydrochloride. A second injection of tetracycline was made 48 hours later.
Bone mineral apposition rates were determined by measurements of the lower metaphysis of the right femur, as described previously. Results obtained in the two sets of experiments are summarized in Tables Seven and Eight and graphically depicted in FIGS. 8 and 9.
Bone mineral apposition rates were again determined by measurement of the lower metaphysis of the right femur. Results obtained are summarized in Table Nineteen and graphically depicted in FIG. 12. […]
In a final set of experiments, a polypeptide having the ninth amino acid, cysteine, replaced by the amino acid tyrosine, SEQ ID NO:43, was synthesized and tested for bone stimulatory activity. Four rats (about 300 grams) were each administered with 100 nmoles of material (in 400 μl 20 mM acetic acid solution) by subcutaneous injection along with tetracycline (5 mg per animal in 400 μl water), as described above. A second dosage of tetracycline was administered 48 hours later and the animals sacrificed 24 hours after that. The lower metaphysis of the right femur was examined to determine the bone mineral apposition rate. For comparison, experiments were performed using a control in which no compound was present in the acetic acid solution.

[1] = Stability of dissolved polypeptides (capillary electrophoresis, RP-HPLC); format: physicochemical; details: for Stability relative to SEQ ID NOs: 7 or 24: general summary of stability tests
Description: Each of the polypeptides having the sequences identified as SEQ ID NO: 7 and 24 was dissolved in 5 mM acetic acid to a final concentration of 1 mg/ml and incubated at 37° C. The peptide compositions were analyzed weekly by capillary electrophoresis on a P/ACE 6000 system (Beckman) using 50 mM sodium phosphate pH 2.5 as the running buffer on a 57 cm long×75 μm internal diameter capillary. The incubated peptide (20 μl) was diluted with 80 μl of running buffer, placed in a 500 μl vial prior to injection onto the P/ACE using pressure for 20 seconds. Following electrophoresis of the incubated peptide at 30 kV for 15 min a second run was carried out using freshly dissolved peptide as a control.
Each of the polypeptides was dissolved in 20 mM sodium phosphate pH 3.0, 20 mM ammonium acetate pH 4.0, 20 mM ammonium acetate pH 5.0, 20 mM MES pH 6.0, 20 mM sodium phosphate pH 7.0, 20 mM sodium phosphate pH 7.5, 20 mM sodium phosphate pH 8.0, 20 mM ammonium acetate pH 8.5 or 20 mM ammonium acetate pH 9.5 to a final concentration of 1 mg/ml. The peptide was incubated at 37° C. and the peptide assayed weekly by separation on P/ACE as described above. Some samples were separated by RP-HPLC and the isolated peaks subjected to mass spectroscopic analysis.
The protected polypeptide identified as SEQ ID NO:24 was dissolved in 20 mM or 250 mM ammonium acetate pH 4.5 to a final concentration of 1 mg/ml. In some experiments the buffer was supplemented with 20 mM EDTA. The peptide solution was then incubated at −70° C., −20° C., 4° C. or room temperature (22° C.). Samples were assayed weekly by electrophoresis on the P/ACE as described above and/or by RP-HPLC.
The stability of each of the polypeptides having the amino acid sequences identified as SEQ ID NOs: 25, 26 and 27 was tested as described above.

[2] = male Sprague-Dawley rats 280-380 g, about 25 nmol per animal s.c., first set (Table Seven)
[3] = about 125 nmoles of polypeptide per Kg of body weight (Table Twenty)
[4] = 20 mM buffers pH 3.0 to 9.5, 1 mg/ml, 37° C.
[5] = about 25 nmol per animal s.c., second, separate set (Table Eight)
[6] = approximately 500 gm male Sprague-Dawley rats, 300 nmol/kg bodyweight (Table Twenty-Two)

Substance: GIGKRTNEHTADCKIKPNTL [SEQ ID NO:6]
- Bone mineral apposition rate, Mean (rats; [2]): 1.37 μm per day

Substance: LHKKAAETLMVLD [SEQ ID NO:13]
- Increase of bone apposition rate with respect to the control (rats): none

Substance: RTNEHTADCKI [SEQ ID NO:16]
- Increase of bone apposition rate with respect to the control (rats): none
- Bone Apposition Rate, Mean (rats): 1.02 μm/day

Substance: SEQ ID NO:24: ten amino acid sequence of SEQ ID NO:9, acetylated at the amino terminus and amidated at the carboxy terminus (Ac-RTNEHTADCK-NH2)
- Mean Bone Apposition Rate (rats; Table Twenty-One, FIG. 14, N=4): 2.04 μm/day
- Mean Bone Apposition Rate (rats; [3]): 2.72 μm/day
- Stability when dissolved in dilute acids ([1]; 5 mM acetic acid, 1 mg/ml, 37° C., analyzed weekly by capillary electrophoresis): degraded overtime
- pH above which the peptide dimerized [1, 4]: > 6.0
- pH at which the peptide was most stable [1, 4]: ~4.5
- pH below which the peptide degraded [1, 4]: < 4.0
- Stability as a powder and when dissolved in pH 4.5 buffer ([1]; 20 mM or 250 mM ammonium acetate pH 4.5, 1 mg/ml): very stable
- Dissolved peptide compared with dry peptide stored at −70° C. ([1]; ammonium acetate pH 4.5, 1 mg/ml, incubated at 4° C., −20° C. or −70° C., up to 28 days): unchanged
- Time after which modification of the peptide was observed (RP-HPLC) ([1]; ammonium acetate pH 4.5, 1 mg/ml, room temperature (22° C.)): 7 days

Substance: GIGKRTNEHTADCKIKPNTLHKKAA [SEQ ID NO:5]
- Bone mineral apposition rate, Mean (rats; [2]): 1.35 μm per day

Substance: Arg Thr Asn Glu His Thr Ala Asp Cys Lys (Ac-RTNEHTADCK-NH2) [SEQ ID NO:9]
- Bone mineral apposition rate, Mean (rats; [5]): 2.83 μm/d
- Mean Bone Apposition Rate (rats; [3]): 2.11 μm/day

Substance: LHKKAAETLMVLDQ [SEQ ID NO:12]
- Increase of bone apposition rate with respect to the control (rats): none

Substance: CH3CO-Arg Thr Gln Glu His Thr Ala Asp Cys Lys-NH2 (Ac-RTQEHTADCK-NH2) [SEQ ID NO:27]
- Mean Bone Apposition Rate (rats; Table Twenty-One, FIG. 14, N=4): 1.72 μm/day
- Stability in solution ([1]; all pHs tested, 37° C. for 3 days): unstable
- Stability relative to SEQ ID NOs: 7 or 24 [1]: significantly less stable

Substance: SEQ ID NO:36: SEQ ID NO:24 sequence with one amino acid having a charged side chain substituted by alanine; acetylated, amidated (Ac-RTNEATADCK-NH2)
- Bone stimulatory activity of substituted 10-amino acid polypeptides (rats): lack or to exhibit substantially less bone stimulatory activity

Substance: LHKKAAETLMVLDQN [SEQ ID NO:11]
- Increase of bone apposition rate with respect to the control (rats): none

Substance: TADCKIKPNTLHKKAAETLMVLD [SEQ ID NO:14]
- Increase of bone apposition rate with respect to the control (rats): none
- Bone Apposition Rate, Mean (rats): 0.92 μm/day

Substance: LHKKAAETLMVLDQNQ [SEQ ID NO:10]
- Increase of bone apposition rate with respect to the control (rats): none

Substance: SEQ ID NO:45: third amino acid asparagine replaced by glutamine, eighth aspartic acid by glutaric acid, ninth cysteine by tyrosine (as printed) (Ac-RTQEHTAEYK; not fully specified; also: position 8 stated as glutaric acid replacing Asp, X10 not defined)
- Mean Bone Apposition Rate (rats; [6]): 1.77 μm/day

Substance: GIGKRTNEHTADCKIKPNTLHKKAAETLMV [SEQ ID NO:4]
- Bone mineral apposition rate, Mean (rats; [2]): 1.31 μm per day

Substance: SEQ ID NO:38: SEQ ID NO:24 sequence with one amino acid having a charged side chain substituted by alanine; acetylated, amidated (Ac-RTNEHTADCA-NH2)
- Bone stimulatory activity of substituted 10-amino acid polypeptides (rats): lack or to exhibit substantially less bone stimulatory activity

Substance: CH3CO-Arg Thr Asn Glu His Thr Ala Glu Cys Lys-NH2 (Ac-RTNEHTAECK-NH2) [SEQ ID NO:25]
- Mean Bone Apposition Rate (rats; Table Twenty-One, FIG. 14, N=4): 1.94 μm/day
- Stability relative to SEQ ID NOs: 7 or 24 [1]: more stable
- Stability in solution ([1]; pH 2.5-3.0 for 20 days): stable

Substance: SEQ ID NO:34: SEQ ID NO:24 sequence with one amino acid having a charged side chain substituted by alanine; acetylated, amidated (Ac-ATNEHTADCK-NH2)
- Bone stimulatory activity of substituted 10-amino acid polypeptides (rats): lack or to exhibit substantially less bone stimulatory activity

Substance: SEQ ID NO:37: SEQ ID NO:24 sequence with one amino acid having a charged side chain substituted by alanine; acetylated, amidated (Ac-RTNEHTAACK-NH2)
- Bone stimulatory activity of substituted 10-amino acid polypeptides (rats): lack or to exhibit substantially less bone stimulatory activity

Substance: GIGKRTNEHTADCK [SEQ ID NO:8]
- Bone mineral apposition rate, Mean (rats; [5]): 2.09 μm/d

Substance: GIGKRTNEHTADAKIKPNTLHKKAAETLMVLDQNQP [SEQ ID NO:3]
- Bone mineral apposition rate, Mean (rats; rats 295-320 g, 0.1 ml of 1 mg per ml solution s.c., lower metaphysis of right femur (Table Six)): 1.35 μm/d

Substance: RTNEHTADCKIKPNTLHKKAAETLMVLDQN [SEQ ID NO:15]
- Increase of bone apposition rate with respect to the control (rats): none
- Bone Apposition Rate, Mean (rats): 0.92 μm/day

Substance: CH3CO-Arg Thr Gln Glu His Thr Ala Glu Cys Lys-NH2 (Ac-RTQEHTAECK-NH2) [SEQ ID NO:26]
- Mean Bone Apposition Rate (rats; Table Twenty-One, FIG. 14, N=4): 2.88 μm/day
- Mean Bone Apposition Rate (rats; [6]): 2.04 μm/day
- Stability relative to SEQ ID NOs: 7 or 24 [1]: more stable
- Stability in solution ([1]; pH 2.5-3.0, incubated at 37° C.): stable
